Experimental data reported in PMC4933878 (2016).

Tested on: c-myc pu22 DNA (c-myc G-quadruplex DNA) (DNA, G4) TGGGGAGGGTGGGGAGGGTGGGGAAGG
Test: UV-vis absorption titration (hypochromism)
Conditions: 100 mM KCl; Tris-HCl, pH 7.2; 20 μM compound; hypochromism MLCT 14.6%, IL 38.9%; constant not given

binding: yes
SMILES: C(#Cc1ccc(-c2nc3c4cccnc4c4ncccc4c3[nH]2)cc1)c1ccccc1.[Ru+2].c1ccc(-c2ccccn2)nc1.c1ccc(-c2ccccn2)nc1
